{
  "source": "patent EP4321023A1",
  "about": "“MOSQUITO REPELLENT COMPOSITION COMPRISING YARROW ESSENTIAL OIL” (National Hellenic Research Foundation, priority 2022, dated 2024)",
  "key": {"[1]": {"tested_on": "Epiderm™ tissues", "assay": "EpiDerm skin irritation test (EPI-200-SIT), MTT tissue viability", "assay_type": "cell-based, human", "description": "The EpiDerm™ skin irritation test kit (Schafer-Korting, Bock et al., 2008) (EPI-200-SIT) was purchased by MatTek (https://www.mattek.com/) and used in this study. The value of this method lies in that it provides in vivo prediction for classification testing of the nano-emulsions as irritant or non-irritant, based on in vitro results. According to the EU and GHS classification (R38/ Category 2 or no label), an irritant is predicted if the mean relative tissue viability of individual tissues exposed to the test substance is reduced below 50% of the mean viability of the negative controls run in parallel.\nThe experimental procedure for the skin irritation test is the following. Fresh tissues are transferred onto 6-well plates and pre-incubated under standard culture conditions for 1 hour in the assay medium (DMEM based medium, MatTek). Then, the assay medium is replaced by fresh assay medium, and tissues are incubated overnight. […] Then, the blue formazan salt formed by cellular mitochondria is extracted with 2.0 ml/tissue of isopropanol (extractant solution, part # MTT-100-EXT) and the optical density of the extracted formazan is determined at 570 nm using a spectrophotometer. Relative tissue viability is calculated for each tissue as % of the mean viability of the negative control tissues. […]"}, "[2]": {"tested_on": "EpiOcular™ tissues", "assay_type": "cell-based", "conditions": "human, 30 min, 200 µg EO/cm^2", "experimental": "The EpiOcular™ eye irritation test (Stern, Klausner et al., 1998) (OCL-200-EIT) purchased by MatTek was used in this study to evaluate the eye irritation potential of nano-emulsion 1 of Example 2 (Yarrow essential oil (2% Achillea millefolium essential oil)) or of nano-emulsion 2 of Example 2 (mixture of 1% Yarrow essential oil (Achillea millefolium essential oil) with 1% Lavandin oil (Hybrid Lavandula intermedia essential oil) [1:1 w/w]).\nFresh tissues are equilibrated at RT for 15 min, then, transferred onto 6-well plates and pre-incubated at standard culture conditions for 1 hour in assay medium, which is DMEM based medium (MatTek), then, replaced, and tissues are incubated overnight under standard culture conditions. The tissues are prehydrated with Ca^++Mg^++Free-DPBS and incubated at standard culture conditions for 30±2 min. Each nano-emulsion (dose: 200 µg EO/cm^2) and control samples are applied topically on the EpiOcular™ tissues. The tissues are incubated for 30±2 min followed by removal of the nano-emulsions by extensive rinsing of the tissues with Ca^++Mg^++Free-DPBS. […] Finally, the MTT assay is performed, and the relative tissue viability is calculated for each tissue as % of the mean viability of the negative control tissues. […]"}, "[3]": {"tested_on": "3D human skin tissues", "assay": "Histological analysis (eosin and hematoxylin) after 48 h topical application", "assay_type": "cell-based", "conditions": "dose 200 µg EO/cm^2, 48 hours; Figure 8", "experimental": "Following topical application of nano-emulsion 1 of Example 2 (Yarrow essential oil (2% Achillea millefolium essential oil)) or of nano-emulsion 2 of Example 2 (mixture of 1% Yarrow essential oil (Achillea millefolium essential oil) with 1% Lavandin oil (Hybrid Lavandula intermedia essential oil) [1:1 w/w]) on 3D human skin tissues, for 48 hours, skin specimens are collected and further processed for: [1] histological analysis (Furio, Pampalakis et al., 2015) and [2] molecular analysis.\nFirst, 3D-reconstructed human skin tissue culture media is replaced with fresh, pre-warmed media. Under sterile conditions, tissues are exposed topically to each test nano-emulsion (dose, 200 µg EO/cm^2). 5% SDS a widely known skin irritant was used as positive control. […] Alternatively, total RNA was extracted from 3D human skin tissues (Macherey-Nagel) to quantify relative expression of tight junction proteins with the aim to test for potential alterations in expression levels (Figure 9 ). Then, synthesized cDNAs (SuperScript™ First-Strand Synthesis System for RT-PCR, Invitrogen) were used as template for RT-qPCR (SYBR™ Select, Applied Biosystems) to quantify the relative expression levels of tight junction proteins encoding genes using the gene-specific primers enlisted in Table 8. […]"}},
  "data": [
    {"compound": "COC(C)=O", "note": "[PC, methyl acetate]", "values": [
      {"measurement": "Classification", "setting": "[1]; skin irritation, prediction model developed by MatTek", "result": "I, qualified (I, irritant)"},
      {"measurement": "Mean of viabilities, %", "setting": "[1]; skin, dose 200 µg EO/cm^2, 60±1 min exposure, % of mean viability of negative control, 2 tissues", "result": 2.828, "unit": "%"},
      {"measurement": "Mean of viabilities, %", "setting": "[2]", "result": 13.46, "unit": "%"},
      {"measurement": "skin morphology by eosin and hematoxylin staining", "setting": "[3]", "result": "high degree of damage"}
    ]}
  ]
}
